Like-named read-outs stand apart in the source and are kept apart here.
Biological target: recombinant human NK3 receptor (Homo sapiens (Human), UniProt P29371)
Test: biochemical
Type: binding
Details: read-out: Data Ki (hNK-3 receptor affinity)
Protocol: [^3H]SR142801 Competition Binding Assay
hNK3 receptor binding experiment were performed using [^3H]SR142801 (Catalog No. TRK1035, specific activity: 74.0 Ci/mmol, Amersham, GE Healthcare UK limited, Buckinghamshire, UK) and membrane isolated from HEK293 cells transiently expressing recombinant human NK3 receptor. After thawing, the membrane homogenates were centrifuged at 48,000×g for […] at 4° C., the pellets were resuspended in the 50 mM Tris-HCl, 4 mM MnCl2, 1 μM phosphoramidon, 0.1% BSA binding buffer at pH 7.4 to a final assay concentration of 5 μg protein/well. For inhibition experiments, membranes were incubated with [^3H]SR142801 at a concentration equal to KD value of radioligand and 10 concentrations of the inhibitory compound (0.0003-10 μM) (in a total reaction volume of 500 μl) for 75 min at room temperature (RT). At the end of the incubation, membranes were filtered onto unitfilter (96-well white microplate with bonded GF/C filter preincubated 1 h in 0.3% PEI+0.3% BSA, Packard BioScience, Meriden, Conn.) with a Filtermate 196 harvester (Packard BioScience) and washed 4 times with ice-cold 50 mM Tris-HCl, pH 7.4 buffer. Nonspecific binding was measured in the presence of 10 μM SB222200 for both radioligands. The radioactivity on the filter was counted (5 min) on a Packard Top-count microplate scintillation counter with quenching correction after addition of 45 μl of microscint 40 (Canberra Packard S.A., Zürich, Switzerland) and shaking for 1 h. Inhibition curves were fitted according to the Hill equation: y=100/(1+(x/IC50)^nH), where nH=slope factor using Excel-fit 4 software (Microsoft). IC50 values were derived from the inhibition curve and the affinity constant (Ki) values were calculated using the Cheng-Prussoff equation Ki=IC50/(1+[L]/KD) where [L] is the concentration of radioligand and KD is its dissociation constant at the receptor, derived from the saturation isotherm. All experiments were performed in duplicate and the mean±standard error (SEM) of the individual Ki values was calculated.

[1] = [3H]SR142801, membranes of HEK293 cells transiently expressing recombinant human NK3 receptor

recombinant human NK3 receptor, sequence (P29371 whole entry): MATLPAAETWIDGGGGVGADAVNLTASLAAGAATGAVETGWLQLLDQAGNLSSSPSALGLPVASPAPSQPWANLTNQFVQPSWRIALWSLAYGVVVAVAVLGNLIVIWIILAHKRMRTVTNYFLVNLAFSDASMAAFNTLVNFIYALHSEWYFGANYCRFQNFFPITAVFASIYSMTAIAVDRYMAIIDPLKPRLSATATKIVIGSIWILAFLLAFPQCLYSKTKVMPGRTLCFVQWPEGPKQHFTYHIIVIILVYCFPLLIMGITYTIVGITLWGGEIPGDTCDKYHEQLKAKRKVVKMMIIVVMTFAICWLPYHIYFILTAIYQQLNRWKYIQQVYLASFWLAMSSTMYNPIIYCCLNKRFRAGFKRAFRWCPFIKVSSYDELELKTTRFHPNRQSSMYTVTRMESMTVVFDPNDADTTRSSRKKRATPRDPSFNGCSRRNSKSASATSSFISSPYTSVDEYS

SMILES | Ki [1] | Ki
CCN(C(=O)Oc1ccc(F)cc1)[C@H]1CN(C(=O)C2CCN(c3ccc(C#N)cn3)CC2)C[C@@H]1c1ccc(Cl)cc1 [Example 22, [(3R,4S)-4-(4-Chloro-phenyl)-1-(5′-cyano-3,4,5,6-tetrahydro-2H-[1,2′]bipyridinyl-4-carbonyl)-pyrrolidin-3-yl]-ethyl-carbamic acid 4-fluoro-phenyl ester] | 25 nM | 
CC(C)N(C(=O)Oc1ccc(F)cc1)[C@@H]1CN(C(=O)C2CCN(c3ccc(C#N)cn3)CC2)C[C@H]1c1ccc(Cl)cc1 [Example 23, [(3S,4R)-4-(4-Chloro-phenyl)-1-(5′-cyano-3,4,5,6-tetrahydro-2H-[1,2′]bipyridinyl-4-carbonyl)-pyrrolidin-3-yl]-isopropyl-carbamic acid 4-fluoro-phenyl ester] | 21 nM | 
CC(=O)c1ccc(N2CCC(C(=O)N3C[C@@H](N(C(=O)Oc4ccc(F)cc4)C(C)C)[C@H](c4ccc(Cl)cc4)C3)CC2)nc1 [Example 24, [(3S,4R)-1-(5′-Acetyl-3,4,5,6-tetrahydro-2H-[1,2′]bipyridinyl-4-carbonyl)-4-(4-chloro-phenyl)-pyrrolidin-3-yl]-isopropyl-carbamic acid 4-fluoro-phenyl ester] | 62 nM | 
CC(C)N(C(=O)Oc1ccc(F)cc1)[C@@H]1CN(C(=O)C2CCN(c3ccc(C(F)(F)F)cn3)CC2)C[C@H]1c1ccc(Cl)cc1 [Example 25, [(3S,4R)-4-(4-Chloro-phenyl)-1-(5′-trifluoromethyl-3,4,5,6-tetrahydro-2H-[1,2′]bipyridinyl-4-carbonyl)-pyrrolidin-3-yl]-isopropyl-carbamic acid 4-fluoro-phenyl ester] | 112 nM | 
CC(C)N(C(=O)Oc1ccc(F)cc1)[C@@H]1CN(C(=O)C2CCN(c3ccc(C#N)nn3)CC2)C[C@H]1c1ccc(Cl)cc1 [Example 26, {(3S,4R)-4-(4-Chloro-phenyl)-1-[1-(6-cyano-pyridazin-3-yl)-piperidine-4-carbonyl]-pyrrolidin-3-yl}-isopropyl-carbamic acid 4-fluoro-phenyl ester] | 46 nM | 
CC(C)N(C(=O)Oc1ccc(F)cc1)[C@@H]1CN(C(=O)C2CCN(c3cnc(C#N)cn3)CC2)C[C@H]1c1ccc(Cl)cc1 [Example 27, {(3S,4R)-4-(4-Chloro-phenyl)-1-[1-(5-cyano-pyrazin-2-yl)-piperidine-4-carbonyl]-pyrrolidin-3-yl}-isopropyl-carbamic acid 4-fluoro-phenyl ester] | 47 nM | 
CC(C)N(C(=O)Oc1ccc(F)cc1)[C@H]1CN(C(=O)C2CCN(c3ccc(C#N)cn3)CC2)C[C@@H]1c1ccc(Cl)cc1 [Example 28, [(3R,4S)-4-(4-Chloro-phenyl)-1-(5′-cyano-3,4,5,6-tetrahydro-2H-[1,2′]bipyridinyl-4-carbonyl)-pyrrolidin-3-yl]-isopropyl-carbamic acid 4-fluoro-phenyl ester] | 50 nM | 
N#Cc1ccc(N2CCC(C(=O)N3C[C@@H](N(C(=O)Oc4ccc(F)cc4)C4CC4)[C@H](c4ccc(Cl)cc4)C3)CC2)nc1 [Example 29, [(3S,4R)-4-(4-Chloro-phenyl)-1-(5′-cyano-3,4,5,6-tetrahydro-2H-[1,2′]bipyridinyl-4-carbonyl)-pyrrolidin-3-yl]-cyclopropyl-carbamic acid 4-fluoro-phenyl ester] | 12 nM | 
CC(=O)c1ccc(N2CCC(C(=O)N3C[C@@H](N(C(=O)Oc4ccc(F)cc4)C4CC4)[C@H](c4ccc(Cl)cc4)C3)CC2)nc1 [Example 30, [(3S,4R)-1-(5′-Acetyl-3,4,5,6-tetrahydro-2H-[1,2′]bipyridinyl-4-carbonyl)-4-(4-chloro-phenyl)-pyrrolidin-3-yl]-cyclopropyl-carbamic acid 4-fluoro-phenyl ester] | 35 nM | 
O=C(C1CCN(c2ccc(C(F)(F)F)cn2)CC1)N1C[C@@H](N(C(=O)Oc2ccc(F)cc2)C2CC2)[C@H](c2ccc(Cl)cc2)C1 [Example 31, [(3S,4R)-4-(4-Chloro-phenyl)-1-(5′-trifluoromethyl-3,4,5,6-tetrahydro-2H-[1,2′]bipyridinyl-4-carbonyl)-pyrrolidin-3-yl]-cyclopropyl-carbamic acid 4-fluoro-phenyl ester] |  | 57 nM
N#Cc1ccc(N2CCC(C(=O)N3C[C@@H](N(C(=O)Oc4ccc(F)cc4)C4CC4)[C@H](c4ccc(Cl)cc4)C3)CC2)nn1 [Example 32, {(3S,4R)-4-(4-Chloro-phenyl)-1-[1-(6-cyano-pyridazin-3-yl)-piperidine-4-carbonyl]-pyrrolidin-3-yl}-cyclopropyl-carbamic acid 4-fluoro-phenyl ester] |  | 52 nM
N#Cc1cnc(N2CCC(C(=O)N3C[C@@H](N(C(=O)Oc4ccc(F)cc4)C4CC4)[C@H](c4ccc(Cl)cc4)C3)CC2)cn1 [Example 33, {(3S,4R)-4-(4-Chloro-phenyl)-1-[1-(5-cyano-pyrazin-2-yl)-piperidine-4-carbonyl]-pyrrolidin-3-yl}-cyclopropyl-carbamic acid 4-fluoro-phenyl ester] |  | 48 nM
N#Cc1ccc(N2CCC(C(=O)N3C[C@H](c4ccc(Cl)cc4)[C@@H](N(C(=O)Oc4ccc(F)cc4)C4CC4)C3)CC2)nc1 [Example 34, [(3R,4S)-4-(4-Chloro-phenyl)-1-(5′-cyano-3,4,5,6-tetrahydro-2H-[1,2′]bipyridinyl-4-carbonyl)-pyrrolidin-3-yl]-cyclopropyl-carbamic acid 4-fluoro-phenyl ester] | 116 nM | 
CCN(C(=O)Oc1ccc(F)cc1)[C@@H]1CN(C(=O)C2CCN(c3ccc(C#N)cn3)CC2)C[C@H]1c1ccc(F)cc1 [Example 35, [(3S,4R)-1-(5′-Cyano-3,4,5,6-tetrahydro-2H-[1,2′]bipyridinyl-4-carbonyl)-4-(4-fluoro-phenyl)-pyrrolidin-3-yl]-ethyl-carbamic acid 4-fluoro-phenyl ester] | 4 nM | 
CCN(C(=O)Oc1ccc(F)cc1)[C@@H]1CN(C(=O)C2CCN(c3ccc(Cl)cn3)CC2)C[C@H]1c1ccc(F)cc1 [Example 36, [(3S,4R)-1-(5′-Chloro-3,4,5,6-tetrahydro-2H-[1,2′]bipyridinyl-4-carbonyl)-4-(4-fluoro-phenyl)-pyrrolidin-3-yl]-ethyl-carbamic acid 4-fluoro-phenyl ester] |  | 10 nM
CCN(C(=O)Oc1ccc(F)cc1)[C@@H]1CN(C(=O)C2CCN(c3ccc(S(C)(=O)=O)cn3)CC2)C[C@H]1c1ccc(F)cc1 [Example 37, Ethyl-[(3S,4R)-4-(4-fluoro-phenyl)-1-(5′-methanesulfonyl-3,4,5,6-tetrahydro-2H-[1,2′]bipyridinyl-4-carbonyl)-pyrrolidin-3-yl]-carbamic acid 4-fluoro-phenyl ester] | 8 nM | 
CCN(C(=O)Oc1ccc(F)cc1)[C@@H]1CN(C(=O)C2CCN(c3ccc(C(C)=O)cn3)CC2)C[C@H]1c1ccc(F)cc1 [Example 38, [(3S,4R)-1-(5′-Acetyl-3,4,5,6-tetrahydro-2H-[1,2′]bipyridinyl-4-carbonyl)-4-(4-fluoro-phenyl)-pyrrolidin-3-yl]-ethyl-carbamic acid 4-fluoro-phenyl ester] |  | 7 nM
CCN(C(=O)Oc1ccc(F)cc1)[C@@H]1CN(C(=O)C2CCN(C(=O)OC(C)(C)C)CC2)C[C@H]1c1ccc(Cl)c(F)c1 [Example 39, 4-{(3R,4S)-3-(4-Chloro-3-fluoro-phenyl)-4-[ethyl-(4-fluoro-phenoxycarbonyl)-amino]-pyrrolidine-1-carbonyl}-piperidine-1-carboxylic acid tert-butyl ester] | 4 nM | 
CCN(C(=O)Oc1ccc(F)cc1)[C@@H]1CN(C(=O)C2CCN(c3ccc(C#N)cn3)CC2)C[C@H]1c1ccc(Cl)c(F)c1 [Example 40, [(3S,4R)-4-(4-Chloro-3-fluoro-phenyl)-1-(5′-cyano-3,4,5,6-tetrahydro-2H-[1,2′]bipyridinyl-4-carbonyl)-pyrrolidin-3-yl]-ethyl-carbamic acid 4-fluoro-phenyl ester] | 0.7 nM | 
CCN(C(=O)Oc1ccc(F)cc1)[C@@H]1CN(C(=O)C2CCN(c3ccc(Cl)cn3)CC2)C[C@H]1c1ccc(Cl)c(F)c1 [Example 41, [(3S,4R)-4-(4-Chloro-3-fluoro-phenyl)-1-(5′-chloro-3,4,5,6-tetrahydro-2H-[1,2′]bipyridinyl-4-carbonyl)-pyrrolidin-3-yl]-ethyl-carbamic acid 4-fluoro-phenyl ester] | 0.6 nM | 
CCN(C(=O)Oc1ccc(F)cc1)[C@@H]1CN(C(=O)C2CCN(c3ccc(C(F)(F)F)cn3)CC2)C[C@H]1c1ccc(Cl)c(F)c1 [Example 42, [(3S,4R)-4-(4-Chloro-3-fluoro-phenyl)-1-(5′-trifluoromethyl-3,4,5,6-tetrahydro-2H-[1,2′]bipyridinyl-4-carbonyl)-pyrrolidin-3-yl]-ethyl-carbamic acid 4-fluoro-phenyl ester] | 2 nM | 

— US9346786B2, “Pyrrolidine compounds” (Hoffmann-La Roche Inc., priority 2009, dated 2016)
